Experimental data published in patent US20110293746A1, “Modulation of Gsk-3Beta and Method of Treating Proliferative Disorders” (Agency For Science, Technology and Research, priority 2004, published 2011).
“Also recorded” adds a separate entry of the source.

How the values were obtained:
[1] = tested on: p53 and p53 targets in HCT116 cells; experiment: Immunoblot analyses of p53 and p53 targets; assay type: cell-based, Human; details: for cleavage of PARP: cells treated with genotoxic agents; for p53-mediated p21 induction / p53 accumulation / stability in response to DNA damage: with ADR, etoposide or 5-FU, HCT116 (LY2119301 also RKO)
Experimental: (§1) Western blotting, immunoprecipitation and microarray analysis: Cells were scraped, collected and lysed as described previously (Yu, Q., et al. Cancer Res, 62: 5743-5748, 2002). Briefly, cells were lysed with cell lysis buffer (0.3% NP40, 1 mM EDTA, 50 mM Tris-HCl (pH 7.4), 2 mM EGTA, 1% Triton X-100, […], 25 mM NaF, 1 mM Na3VO4, 2 mM AEBSF, 5 μg/ml aprotinin, 1 μg/ml leupeptin) for 30 minutes on ice, and the lysates were clarified by centrifugation at 12,000×g for 15 minutes at 4° C. Protein concentration was quantified (Bio-Rad, Hercules, Calif.) and protein samples (50 μg) were separated by SDS/PAGE and transferred onto Immobilon™ membranes (Millipore, Bedford, Mass.). Antibodies against the following proteins were used: p53 (DO-1), p21, PARP, GSK-α/β, α-Tubulin, and β-actin (Santa Cruz Biotechnology), Puma (Ab-1, Oncogene), Bax (Sigma), phosphor-(Ser9/21)-GSK-3α/β and Caspase-9 (Cell Signaling Technologies), phosphor-(Tyr216/279)-GSK-3α/β (Upstate Biotechnologies), cytochrome c (BD PharMingen). To detect Bax conformational change, cells were lysed in 1% Chaps buffer and the soluble fraction was immunoprecipitated with anti-Bax monoclonal antibody (6A7, BD, PharMingen), followed by immunoblotting with anti-Bax polyclonal antibody. Microarray analysis was performed as described (Kho, P. S., et al. J Biol Chem, 279: 21183-21192, 2004).

GSK-3α = target: T1, GSK-3α (Homo sapiens, UniProt P49840); experiment: Immunoblot analysis of GSK-3 phosphorylation status in HCT116 cells; assay type: cell-based; details: HCT116 whole lysate immunoblot
T1 construct: endogenous in cells; host or cells: HCT116
Experimental: (§2) Protein concentration was quantified (Bio-Rad, Hercules, Calif.) and protein samples (50 μg) were separated by SDS/PAGE and transferred onto Immobilon™ membranes (Millipore, Bedford, Mass.). […] To detect Bax conformational change, cells were lysed in 1% Chaps buffer and the soluble fraction was immunoprecipitated with anti-Bax monoclonal antibody (6A7, BD, PharMingen), followed by immunoblotting with anti-Bax polyclonal antibody.
(§3) Subcellular fractionation: Cells were lysed in mitochondria lysis buffer (210 mM Mannitol, 70 mM Sucrose, 10 mM Hepes (pH, 7.4), 1 mM EDTA, protease inhibitor cocktail) with a Dounce homogenizer and subjected to centrifugation at 1000×g to pellet the nuclei. Post-nuclear supernatant was centrifuged at 10,000×g to pellet the mitochondria-enriched heavy membrane fraction, and the resulting supernatant was further centrifuged to obtain cytosolic fraction. Total proteins (30 μg) from cytosolic or mitochondrial fractions were subjected to immunoblot analysis.

GSK-3β = target: T2, GSK-3β (Homo sapiens, UniProt P49841); experiment: as above; assay type: cell-based
T2 construct: endogenous in cells; host or cells: HCT116
Experimental: as §2, §3

GSK-3α and GSK-3β = details: in vitro, Coghlan et al. 2000; cited from earlier work
HCT116 cells = experiment: FACS analysis of DNA content (sub-G1 apoptotic fraction); assay type: cell-based, Human; details: for effect on ADR-treated cells (apoptosis): concentrations up to 20 μM, with ADR
Experimental: Cell culture and drug treatments: Human colon cancer cell line HCT116 and its derived isogenic p53^−/−, Puma^−/−, Bax^−/− and p53-inducible DLD cell lines were kindly provided by Dr. Bert Vogelstein (Johns Hopkins University, MD). RKO and RKO/E6 cells were from ATCC. Cells were cultured in DMEM containing 10% FBS. All culture reagents and media were from Invitrogen. 5-Fluorouracil, Adriamycin, etoposide and lithium chloride were purchased from Sigma. GSK-3β specific small molecule inhibitor LY2119301 was a gift from Eli Lilly (Indianapolis) and SB-216763, SB-415283 were obtained from BIOMOL.
FACS analysis of DNA content and caspase-3 activity: Cells were harvested and fixed in 70% ethanol. Fixed cells were stained with propidium iodide (50 μg/ml) after treatment with RNase (100 μg/ml). The stained cells were analyzed for DNA content by fluorescence-activated cell sorting (FACS) in a FACScalibur™ (Becton Dickinson Instrument, San Jose, Calif.). Cell cycle fractions were quantified using the CellQues™ software (Becton Dickinson). To measure caspase-3 activity, cells were fixed with Cytofix/Cytoperm™ solution (BD PharMingen) as instructed, and then stained with FITC-conjugated rabbit anti-active caspase-3 monoclonal antibody (BD PharMingen). Quantification of cells positive for the caspase-3 detection was performed by flow cytometry.

p53 in HCT116 cells = experiment: p53 accumulation in cytosol and mitochondria (subcellular fractionation, Western blot); assay type: cell-based, Human; details: after drug treatment
Experimental: as §1, §3

T2 sequence (P49841 whole entry): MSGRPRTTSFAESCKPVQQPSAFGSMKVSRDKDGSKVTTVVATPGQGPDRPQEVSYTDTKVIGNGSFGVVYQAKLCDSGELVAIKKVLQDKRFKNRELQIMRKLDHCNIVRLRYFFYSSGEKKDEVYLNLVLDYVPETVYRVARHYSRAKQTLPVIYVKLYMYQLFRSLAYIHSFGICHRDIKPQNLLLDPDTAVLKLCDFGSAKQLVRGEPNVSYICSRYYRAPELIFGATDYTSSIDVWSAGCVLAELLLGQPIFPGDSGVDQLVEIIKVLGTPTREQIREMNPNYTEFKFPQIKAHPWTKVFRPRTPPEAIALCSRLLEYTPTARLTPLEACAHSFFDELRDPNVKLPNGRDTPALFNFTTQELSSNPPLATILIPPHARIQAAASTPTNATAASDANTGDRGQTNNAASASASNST
T1 sequence (P49840 whole entry): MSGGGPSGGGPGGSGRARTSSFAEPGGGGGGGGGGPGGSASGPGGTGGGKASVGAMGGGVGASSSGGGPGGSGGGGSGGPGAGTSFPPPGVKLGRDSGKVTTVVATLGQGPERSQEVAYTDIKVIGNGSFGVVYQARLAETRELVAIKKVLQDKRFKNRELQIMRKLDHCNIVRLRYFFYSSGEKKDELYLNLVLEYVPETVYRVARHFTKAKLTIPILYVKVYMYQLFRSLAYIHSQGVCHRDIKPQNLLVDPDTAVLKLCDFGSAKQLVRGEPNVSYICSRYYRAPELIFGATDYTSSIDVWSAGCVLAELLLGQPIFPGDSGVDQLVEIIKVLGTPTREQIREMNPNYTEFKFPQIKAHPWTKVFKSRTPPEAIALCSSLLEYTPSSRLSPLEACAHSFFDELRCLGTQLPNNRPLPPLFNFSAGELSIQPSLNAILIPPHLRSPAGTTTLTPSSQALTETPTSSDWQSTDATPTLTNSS

| activating tyrosine phosphorylation on GSK-3α (GSK-3α) | inhibitory serine 21 phosphorylation on GSK-3α (GSK-3α) | inhibitory serine 9 phosphorylation on GSK-3β (GSK-3β; HCT116 whole lysate immunoblot) | tyrosine phosphorylation of GSK-3β (GSK-3β; nuclear and cytoplasmic fractions) | levels and phosphorylation states of cytosolic and nuclear GSK-3α and GSK-3β (GSK-3β; after etoposide treatment alone) | Structure (SMILES) | cleavage of PARP [1] | p53-mediated p21 induction [1] | p53 accumulation / stability in response to DNA damage [1] | p53-mediated p21 induction ([1]; listed as SB-126763) | p53 accumulation / stability in response to DNA damage ([1]; listed as SB-126763) | inhibition of GSK-3α versus GSK-3β (GSK-3α and GSK-3β) | effect on ADR-treated cells (apoptosis) (HCT116 cells) | time of p53 accumulation in the cytosol (not seen until) (p53 in HCT116 cells) | time of p53 accumulation in the mitochondria (as early as) (p53 in HCT116 cells) | apoptosis by etoposide alone despite mitochondrial p53 accumulation (HCT116 cells; etoposide without GSK-3β inhibitor) |
| --- | --- | --- | --- | --- | --- | --- | --- | --- | --- | --- | --- | --- | --- | --- | --- |
| reduced | induced | slightly reduced | did not block |  | Cn1cc(C2=C(c3ccc(Cl)cc3Cl)C(=O)NC2=O)c2ccccc21 [SB-216763] | did not induce | no affect | no affect | no effect | no effect | equally effective | no effect |  |  |  |
|  |  |  |  | no changes | COc1cc([C@@H]2c3cc4c(cc3[C@@H](O[C@@H]3O[C@@H]5CO[C@@H](C)O[C@H]5[C@H](O)[C@H]3O)[C@H]3COC(=O)[C@H]23)OCO4)cc(OC)c1O [etoposide] |  |  |  |  |  |  |  | 6 h | 2 h | failed to induce apoptosis |
|  |  |  |  |  | O=C1NC(=O)C(c2ccccc2[N+](=O)[O-])=C1Nc1ccc(O)c(Cl)c1 [SB-415286] | did not induce | no affect; also recorded: no effect | no affect; also recorded: no effect |  |  |  | no effect |  |  |  |
|  |  |  |  |  | O=c1[nH]cc(F)c(=O)[nH]1 [5-FU, 5-fluorouracil] |  |  |  |  |  |  |  | 6 h | 2 h |  |
